Converted amounts (≈) assume the structure as drawn. Like-named read-outs stand apart in the source and are kept apart here.

A short description of data set [1]: Example 1: population PK after single IV bolus in healthy male subjects. The note with it: human. Format: in vivo. As for the experimental part: (§1) The purpose of this study was to investigate the pharmacokinetics (PK), pharmacodynamics (PD), and the maximum tolerated dose of regadenoson in healthy human subjects.
(§2) Thirty-six healthy, male subjects were included in the study. […] ECG, blood pressure (BP), and heart rate (HR) were recorded for up to 24 hours post-dose. Adverse events (AE) were monitored for 24 hours post dose and via telephone 7 days later. A population approach was utilized in applying a three-compartmental PK model to the plasma concentration-time and a Michaelis-Menten model to the time-course of heart rate. The potential influence of various covariates on PK and PD model parameters was investigated.

Data set [2] deals with human platelets. The experiment in a line: Platelet aggregation. In kind it is cell-based. The settings on record: mean ± SE, read-out: Platelet Aggregation, potency.
A further data set is described as follows: Solubility in water. In kind it is physicochemical. As for the experimental part: Therefore, regadenoson can be dissolved and administered in water so long as the desired weight amount of regadenoson can be administered in an acceptable volume. For example, a preferred dose of about 400 micrograms can be administered in 8 mL of water.
In data set [3] the target is T1, A2A-adenosine receptors (Rattus norvegicus, UniProt P30543).
T1 construct: rat brain striatal membranes; from tissue; host or cells: rat brain striatum membranes
The experiment in a line: Membrane binding, displacement of [3H]-CG-S21680, rat brain striatal membranes. The note with it: Rat striatum, mean ± SE, read-out: Membrane Binding, affinity [Ki]. In general terms: Displacement assays read how much labelled ligand stays bound in the presence of the test substance.

A short description of data set [4]: Example 1: tolerability / maximum tolerated dose in healthy male subjects. In kind it is in vivo, human. The settings on record: for MTD at 24 h: male, human, in vivo, intravenous. As for the experimental part:
as §1, §2

The test system of data set [5] is human platelets. The experiment in a line: Cell calcium mobilization, human platelets. Format: cell-based. The settings on record: Platelet, mean ± SE, read-out: Cell calcium Mobilization, potency.
Data set [6] can be described thus: Example 1: PD model (Michaelis-Menten) of heart rate time-course in healthy male subjects. In kind it is in vivo, human. As for the experimental part:
as §1, §2

The nature of data set [7]: Example 2: population PK in subjects undergoing cardiac catheterization. Format: in vivo. The note with it: both sexes, human, plasma. As for the experimental part:
(§3) The purpose of this study was to investigate the pharmacokinetics (PK) and pharmacodynamics (PD) of regadenoson in subjects undergoing clinically indicated cardiac catheterization.
(§4) Thirty-six male and female subjects undergoing clinically indicated coronary angiography were studied. […] ECG, average coronary peak flow velocity (APV), measured using intracoronary Doppler flow wire, blood pressure (BP), and heart rate (HR) were continuously monitored for up to 3 hours post-dose. Occurrence of adverse events (AEs) was monitored for approximately 3 hours post dosing and via telephone approximately 14 days later. A population approach was utilized in applying PK and PD models to the plasma concentration, APV, and HR data. The potential influence of various covariates on PK and PD model parameters was investigated.

Data set [8] can be described thus: Example 2: PD model (Michaelis-Menten) of heart rate. Format: in vivo, human. The settings on record: catheterization subjects. As for the experimental part: as §3, §4
In another data set the test system is human neutrophils. As to the kind of experiment: Superoxide anion production, human neutrophils. Format: cell-based. The note with it: Neutrophil, mean ± SE, read-out: Superoxide anion Production, potency.
Data set [9] addresses T1, A2A-adenosine receptors. The experiment in a line: Membrane binding, displacement of [3H]-ZM241385, rat brain striatal membranes. The note with it: Rat striatum, mean ± SE, read-out: Membrane Binding, affinity [Ki].
A short description of data set [10]: Example 2: PD model of average coronary peak flow velocity (APV), intracoronary Doppler flow wire. Format: in vivo, human. As for the experimental part:
as §3, §4

Data set [11] deals with A2A-adenosine receptors. The settings on record: average of the 12 assays.

T1 sequence (P30543 whole entry): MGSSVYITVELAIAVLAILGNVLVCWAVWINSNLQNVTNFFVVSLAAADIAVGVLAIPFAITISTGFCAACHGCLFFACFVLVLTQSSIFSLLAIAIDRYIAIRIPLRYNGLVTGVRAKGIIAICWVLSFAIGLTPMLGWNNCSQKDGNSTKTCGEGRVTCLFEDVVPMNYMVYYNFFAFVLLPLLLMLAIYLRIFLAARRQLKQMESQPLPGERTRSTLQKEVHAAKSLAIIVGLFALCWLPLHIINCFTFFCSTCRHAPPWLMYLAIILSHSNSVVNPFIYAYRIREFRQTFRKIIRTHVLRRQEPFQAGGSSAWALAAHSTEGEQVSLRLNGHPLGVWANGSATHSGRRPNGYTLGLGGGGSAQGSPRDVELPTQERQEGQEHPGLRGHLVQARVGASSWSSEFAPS

Turning to `CNC(=O)c1cnn(-c2nc(N)c3ncn([C@@H]4O[C@H](CO)[C@@H](O)[C@H]4O)c3n2)c1` [regadenoson, (1-{9-[(4S,2R,3R,5R)-3,4-dihydroxy-5-(hydroxymethyl)oxolan-2-yl]-6-aminopurin-2-yl}pyrazol-4-yl)-N-methylcarboxamide], the Vd in data set [1] (plasma, healthy male subjects, IV bolus, read-out: volume of distribution) stood at 83.3 L; in data set [7] (IV bolus, read-out: volume of distribution), 68.1 L. In addition, the clearance in [1] (plasma, healthy male subjects, single IV bolus 0.1 to 30 μg/kg, three-compartmental model, read-out: population value of clearance (CL) (converted)) was 677 mL/min; in [7] (single IV bolus 10 to 500 μg, three-compartment model), 498 mL/min. In addition, the “renal clearance as share of the total clearance” value in data set [1] (male, in vivo, iv) turned out to be 57%. Besides, the IC50 came out at 437 ± 44 nM with human platelets [2], 108 ± 8 nM in the data set on human platelets [5] and 328 ± 32 nM with human neutrophils. Moreover, the solubility in the data set “Solubility in water” is about 50 µg/mL (≈ 128 µM). Further, the Ki on A2A-adenosine receptors [3] worked out at 43 ± 3 nM; at A2A-adenosine receptors [9], 318 ± 5 nM. Also, the “adverse events, severity” value in [4] (healthy male subjects, IV bolus 0.1 to 30 μg/kg) is “mild to moderate”. The MTD at 24 h stood at 0.01 mg/kg in [4] (standing, dose-limiting syncope or near syncope, read-out: maximum tolerated dose, standing position) and 0.02 mg/kg in data set [4] (supine, read-out: maximum tolerated dose, supine position). The “dose generally well tolerated, standing patients” value in data set [4] (standing) was “up to 10 μg/kg”. Further, in data set [4] (supine), the “dose generally well tolerated, supine patients” value is “up to 20 μg/kg”. In addition, the EC50 in data set [6] (Homo sapiens, read-out: concentration causing half-maximal increase in HR (potency)) was found to be 0.0124 µg/mL (≈ 0.0318 µM); in [8] (Homo sapiens, read-out: potency on HR), 0.0275 µg/mL (≈ 0.0704 µM); in [10] (Homo sapiens, catheterization subjects, read-out: potency (concentration that causes half maximal effect) on APV), 0.0299 µg/mL (≈ 0.0766 µM). Also, in data set [6] (healthy male subjects, model estimate), the “maximal increase in HR” value is reported as 76 bpm. Moreover, in [8] (model estimate), the “maximum increase in the HR” value is recorded as 41 bpm. In addition, the “distribution rate constant from the plasma to the effect site” value in [10] (APV PD model) was 4 min⁻¹. Besides, the “maximal increase in APV” value in data set [10] (model estimate, effect compartment) is 105 cm/s.

In the case of `CCNC(=O)[C@H]1O[C@@H](n2cnc3c(N)nc(NCCc4ccc(CCC(=O)O)cc4)nc32)[C@H](O)[C@@H]1O` [CGS 21680], the “values of EC50 lower than for regadenoson, on average” value in the data set with A2A-adenosine receptors [11] is given as 13 fold.

The clearance is the volume of plasma or blood freed of the substance per unit of time. The term solubility denotes the concentration that dissolves in the medium under given conditions. As a reminder, the Ki is a dissociation constant, usually derived from enzyme kinetics or from competition with a known ligand.

Source of the values: patent publication US8106029B2, “Use of A2A adenosine receptor agonists” (Gilead Sciences, Inc., priority 2004, dated 2012).
